Counter-ions that a name gives are not always drawn.
Target: T1, Tyk2 (Homo sapiens, UniProt P29597)
T1 construct: purchased Invitrogen
Assay: Tyk2 enzyme inhibition test (LANCE method)
Type: biochemical
Details: compound 1 μM; Tyk2 (Invitrogen), ULight-JAK1 substrate, ATP; well without enzyme = 100% inhibition; read-out: Tyk2 enzyme inhibitory activity (%, 1 μM)
Experimental: Tyk2 enzyme inhibitory activity of test compounds was measured by LANCE method (PerkinElmer). First, a test compound diluted with assay buffer (50 mM HEPES (pH=7.5), […], 1 mM EGTA, 2 mM DTT, 0.01% Tween20, 0.01% BSA) was added to 384-well plate at 2 μL each. Then, a Tyk2 (Invitrogen) solution and a fluorescence-labeled peptide substrate (ULight-JAK1, PerkinElmer) solution diluted with assay buffer at 375 ng/mL and 300 nM, respectively were added at 2 μL each. Then, enzyme reaction was started by adding 2 μL each of ATP solution prepared with assay buffer at 30 μM. After the reaction at room temperature for 1 hr, Detection Buffer (PerkinElmer) prepared to be 20 mM EDTA, 4 nM europium-labeled anti-phosphotyrosine antibody (PerkinElmer) was added at 6 μL each. After standing at room temperature for 1 hr, fluorescence intensity (excitation wavelength 340 nm, fluorescence wavelength 665 nm, delay time 100 microsecond) was measured by a plate reader, Envision (PerkinElmer). The inhibitory activity of each compound was calculated as relative value where fluorescence intensity of a well without enzyme is considered as 100% inhibition.

T1 sequence (P29597 whole entry): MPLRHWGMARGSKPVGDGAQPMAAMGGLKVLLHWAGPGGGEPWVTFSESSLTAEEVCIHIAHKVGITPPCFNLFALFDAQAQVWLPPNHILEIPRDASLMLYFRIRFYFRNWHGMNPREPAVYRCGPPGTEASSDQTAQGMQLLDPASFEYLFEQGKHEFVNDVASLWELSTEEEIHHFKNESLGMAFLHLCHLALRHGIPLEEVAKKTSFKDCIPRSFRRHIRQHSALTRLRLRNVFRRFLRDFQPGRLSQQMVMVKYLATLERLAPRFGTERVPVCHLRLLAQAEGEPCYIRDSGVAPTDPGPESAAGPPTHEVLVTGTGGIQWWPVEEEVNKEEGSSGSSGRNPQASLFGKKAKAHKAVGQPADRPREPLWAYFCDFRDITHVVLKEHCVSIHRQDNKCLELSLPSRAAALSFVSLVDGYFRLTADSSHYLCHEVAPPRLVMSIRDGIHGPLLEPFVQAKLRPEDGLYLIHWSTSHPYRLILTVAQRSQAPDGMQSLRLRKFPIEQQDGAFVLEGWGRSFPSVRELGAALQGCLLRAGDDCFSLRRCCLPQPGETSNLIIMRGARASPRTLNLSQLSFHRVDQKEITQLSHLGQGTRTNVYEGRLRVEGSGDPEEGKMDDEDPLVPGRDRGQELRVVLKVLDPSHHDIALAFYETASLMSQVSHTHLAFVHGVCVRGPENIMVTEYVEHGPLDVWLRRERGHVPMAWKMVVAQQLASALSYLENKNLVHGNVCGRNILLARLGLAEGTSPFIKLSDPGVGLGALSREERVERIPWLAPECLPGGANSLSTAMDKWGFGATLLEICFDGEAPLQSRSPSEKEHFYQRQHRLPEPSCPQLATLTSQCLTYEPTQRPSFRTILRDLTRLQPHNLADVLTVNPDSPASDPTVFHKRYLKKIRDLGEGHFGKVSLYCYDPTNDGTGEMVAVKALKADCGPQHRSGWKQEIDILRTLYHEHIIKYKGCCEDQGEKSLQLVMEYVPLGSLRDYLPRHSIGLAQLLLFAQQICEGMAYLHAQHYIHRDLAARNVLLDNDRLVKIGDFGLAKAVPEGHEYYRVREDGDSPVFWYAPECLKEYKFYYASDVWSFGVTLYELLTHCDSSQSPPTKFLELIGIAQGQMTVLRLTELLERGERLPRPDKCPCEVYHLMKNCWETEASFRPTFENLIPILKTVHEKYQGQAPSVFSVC

SMILES | inhibition at 1 µM
CCC1(C#N)CCN(c2ccnc(Nc3cnn(C)c3)n2)C1=O (centres unmarked) [Example 1, 3-ethyl-1-(2-((1-methyl-1H-pyrazol-4-yl)amino)pyrimidin-4-yl)-2-oxopyrrolidine-3-carbonitrile] | 99%
CC(C)(CO)n1cc(Nc2nccc(N3CC[C@@](C#N)(C4CC4)C3=O)n2)cn1 [Example 103, (3S)-3-cyclopropyl-1-(2-((1-(1-hydroxy-2-methylpropan-2-yl)-1H-pyrazol-4-yl)amino)pyrimidin-4-yl)-2-oxopyrrolidine-3-carbonitrile] | 100%
CCC1(C#N)CCN(c2ccnc(NCC3CC3)n2)C1=O (centres unmarked) [Example 77, 1-(2-((cyclopropylmethyl)amino)pyrimidin-4-yl)-3-ethyl-2-oxopyrrolidine-3-carbonitrile] | 22%
CCC1(CC)CCN(c2ccnc(Nc3ccccc3)n2)C1=O [Example 15, 1-(2-anilinopyrimidin-4-yl)-3,3-diethylpyrrolidin-2-one] | 89%
Cn1cc(Nc2ncc(F)c(N3CCC(C)(C)C3=O)n2)cn1 [Example 29, 1-(5-fluoro-2-((1-methyl-1H-pyrazol-4-yl)amino)pyrimidin-4-yl)-3,3-dimethylpyrrolidin-2-one] | 91%
CC(C)[C@]1(C#N)CCN(c2ccnc(Nc3cnn(CCC(=O)N(C)C)c3)n2)C1=O [Example 265, 3-(4-((4-((3S)-3-cyano-3-isopropyl-2-oxopyrrolidin-1-yl)pyrimidin-2-yl)amino)-1H-pyrazol-1-yl)-N,N-dimethylpropanamide] | 99%
CCC1(CC)CC(C)N(c2ccnc(Nc3cnn(C)c3)n2)C1=O (centres unmarked) [Example 33, 3,3-diethyl-5-methyl-1-(2-((1-methyl-1H-pyrazol-4-yl)amino)pyrimidin-4-yl)pyrrolidin-2-one hydrochloride] | 97%
CNC(=O)Cn1cc(Nc2nccc(N3CC[C@@](C#N)(C(C)C)C3=O)n2)cn1 [Example 86, 2-(4-((4-((3S)-3-cyano-3-isopropyl-2-oxopyrrolidin-1-yl)pyrimidin-2-yl)amino)-1H-pyrazol-1-yl)-N-methylacetamide hydrochloride] | 100%
CNC(=O)Cn1cc(Nc2nccc(N3CC[C@](C#N)(C4CC4)C3=O)n2)cn1 [Example 133, 2-(4-((4-((3R)-3-cyano-3-cyclopropyl-2-oxopyrrolidin-1-yl)pyrimidin-2-yl)amino)-1H-pyrazol-1-yl)-N-methylacetamide hydrochloride] | 24%
CC[C@]1(C#N)CCN(c2ccnc(Nc3ccc(N4CCOCC4)cc3)n2)C1=O [Example 4, (3R)-3-ethyl-1-(2-((4-(morpholin-4-yl)phenyl)amino)pyrimidin-4-yl)-2-oxopyrrolidine-3-carbonitrile] | 100%
CCC1(C#N)CCN(c2ccnc(NCc3ccc(C#N)cc3)n2)C1=O (centres unmarked) [Example 61, 1-(2-((4-cyanobenzyl)amino)pyrimidin-4-yl)-3-ethyl-2-oxopyrrolidine-3-carbonitrile] | 14%
CCC1(CC#N)CCN(c2ccnc(Nc3cnn(C)c3)n2)C1=O (centres unmarked) [Example 31, (3-ethyl-1-(2-((1-methyl-1H-pyrazol-4-yl)amino)pyrimidin-4-yl)-2-oxopyrrolidin-3-yl)acetonitrile] | 98%
CC(C)[C@]1(C#N)CCN(c2ccnc(Nc3cnn(CC(N)=O)c3)n2)C1=O [Example 85, 2-(4-((4-((3S)-3-cyano-3-isopropyl-2-oxopyrrolidin-1-yl)pyrimidin-2-yl)amino)-1H-pyrazol-1-yl)acetamide hydrochloride] | 100%
Cn1cc(Nc2nccc(N3CCCC3=O)n2)cn1 [Example 12, 1-(2-((1-methyl-H-pyrazol-4-yl)amino)pyrimidin-4-yl)pyrrolidin-2-one] | 51%
CNC(=O)Cn1cc(Nc2nccc(N3CC[C@@](C#N)(C4CC4)C3=O)n2)cn1 [Example 134, 2-(4-((4-((3S)-3-cyano-3-cyclopropyl-2-oxopyrrolidin-1-yl)pyrimidin-2-yl)amino)-1H-pyrazol-1-yl)-N-methylacetamide hydrochloride] | 99%
CCC1(C#N)CCN(c2ccnc(NCc3ccco3)n2)C1=O (centres unmarked) [Example 72, 3-ethyl-1-(2-((2-furylmethyl)amino)pyrimidin-4-yl)-2-oxopyrrolidine-3carbonitrile] | 20%
N#C[C@@]1(C2CC2)CCN(c2ccnc(Nc3cnn(C4(CO)CC4)c3)n2)C1=O [Example 128, (3S)-3-cyclopropyl-1-(2-((1-(1-(hydroxymethyl)cyclopropyl)-1H-pyrazol-4-yl)amino)pyrimidin-4-yl)-2-oxopyrrolidine-3-carbonitrile] | 100%
CCC1(CC)CCN(c2ccnc(Nc3cnn(C)c3)n2)C1=O [Example 10, 3,3-diethyl-1-(2-((1-methyl-1H-pyrazol-4-yl)amino)pyrimidin-4-yl)pyrrolidin-2-one hydrochloride] | 97%
CC(C)[C@]1(C#N)CCN(c2ccnc(Nc3cnn(CC(=O)N(C)C)c3)n2)C1=O [Example 87, 2-(4-((4-((3S)-3-cyano-3-isopropyl-2-oxopyrrolidin-1-yl)pyrimidin-2-yl)amino)-1H-pyrazol-1-yl)-N,N-dimethylacetamide hydrochloride] | 100%
CC(C)[C@]1(C#N)CCN(c2ccnc(Nc3ccc(N4CCOCC4)cc3)n2)C1=O [Example 7, (3S)-3-isopropyl-1-(2-((4-(morpholin-4-yl)phenyl)amino)pyrimidin-4-yl)-2-oxopyrrolidine-3-carbonitrile] | 100%
CC(C)(C(N)=O)n1cc(Nc2nccc(N3CC[C@@](C#N)(C4CC4)C3=O)n2)cn1 [Example 109, 2-(4-((4-((3S)-3-cyano-3-cyclopropyl-2-oxopyrrolidin-1-yl)pyrimidin-2-yl)amino)-1H-pyrazol-1-yl)-2-methylpropanamide hydrochloride] | 99%
Cn1cc(Nc2nccc(N3CCCC(C)(C)C3=O)n2)cn1 [Example 101, 3,3-dimethyl-1-(2-((1-methyl-1H-pyrazol-4-yl)amino)pyrimidin-4-yl) piperidin-2-one hydrochloride] | 88%

Test system: IL-23
Assay: IL-23-induced IL-22 in rat auricle tissue
Type: in vivo
Details: 10 mg/kg, q.d., oral, 30 min before intradermal mouse IL-23 into right auricle; IL-22 in auricle tissue by ELISA about 24 hr later; mean of n=6
Experimental: Recombinant mouse IL-23 (1 μg/20 μL/site) was intradermally administered into the right auricle of 7-8-week-old LEWEIS male rat. As control, phosphate buffered saline (PBS) which is a solvent was administered instead of IL-23. Then, a drug (the compound of Example 103) suspended in 0.5% methyl cellulose (MC) was orally administered 30 min before IL-23 administration, respectively. 0.5% MC was used as vehicle. The auricle tissues of 6 mm diameter were collected about 24 hr after IL-23 administration. Lysis buffer was added thereto, the tissues were crushed using beads, and centrifugalized, and the supernatant was collected. IL-22 in the tissues was measured using ELISA kit (R & D Systems). The result is shown below as a IL-23 inhibitory rate relative to vehicle. (mean of n=6)

SMILES | IL-23 inhibitory rate relative to vehicle
CC(C)(CO)n1cc(Nc2nccc(N3CC[C@@](C#N)(C4CC4)C3=O)n2)cn1 [Example 103, (3S)-3-cyclopropyl-1-(2-((1-(1-hydroxy-2-methylpropan-2-yl)-1H-pyrazol-4-yl)amino)pyrimidin-4-yl)-2-oxopyrrolidine-3-carbonitrile] | 79%

— US9187453B2, “Heterocyclic compound” (Takeda Pharmaceutical Company Limited, priority 2012, dated 2015)
